Experimental data from ChEMBL document CHEMBL4811250, “Discovery and Optimization of 2H-1λ2-Pyridin-2-one Inhibitors of Mutant Isocitrate Dehydrogenase 1 for the Treatment of Cancer” (J Med Chem, 2021).

Biological target: Isocitrate dehydrogenase [NADP] cytoplasmic (Homo sapiens, UniProt O75874, R132H)
Test: Inhibition of IDH1 R132H mutant (unknown origin) assessed as reduction in NADPH consumption using alpha-KG as substrate incubated for 5 mins by diaphorase/resazurin-coupled system

Sequence of Isocitrate dehydrogenase [NADP] cytoplasmic (O75874 2-414 R132H limits assumed): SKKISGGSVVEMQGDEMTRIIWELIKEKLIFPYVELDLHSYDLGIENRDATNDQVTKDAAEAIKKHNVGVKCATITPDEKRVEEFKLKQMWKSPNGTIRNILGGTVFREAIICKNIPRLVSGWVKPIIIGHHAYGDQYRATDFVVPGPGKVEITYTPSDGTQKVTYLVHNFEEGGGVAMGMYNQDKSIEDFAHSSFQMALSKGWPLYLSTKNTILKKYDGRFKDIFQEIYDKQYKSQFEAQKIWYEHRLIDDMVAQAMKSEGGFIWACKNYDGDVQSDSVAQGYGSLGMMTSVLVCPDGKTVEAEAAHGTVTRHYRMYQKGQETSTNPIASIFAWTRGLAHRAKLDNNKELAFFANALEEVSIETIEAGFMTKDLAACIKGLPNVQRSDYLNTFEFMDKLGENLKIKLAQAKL

IC50 | Structure (SMILES)
1300 nM | CC1(C)CC(=O)c2cc(-c3nc(-c4ccc(Cl)cc4)cs3)c(=O)n(-c3ccccc3Cl)c2C1
14000 nM | COc1c(C(=O)O)cccc1-n1c2c(cc(-c3nc(-c4ccc(Cl)cc4)cs3)c1=O)C(=O)CC(C)(C)C2
2400 nM | COc1ccccc1-n1c2c(cc(-c3nc(-c4ccc(Cl)cc4)cs3)c1=O)C(=O)CC(C)(C)C2
3600 nM | COc1ccc(OC)c(-n2c3c(cc(-c4nc(-c5ccc(Cl)cc5)cs4)c2=O)CCC(C)(C)C3)c1

System: Isocitrate dehydrogenase [NADP] cytoplasmic (Homo sapiens), O75874 [R132C]
Sequence (O75874 whole entry R132C): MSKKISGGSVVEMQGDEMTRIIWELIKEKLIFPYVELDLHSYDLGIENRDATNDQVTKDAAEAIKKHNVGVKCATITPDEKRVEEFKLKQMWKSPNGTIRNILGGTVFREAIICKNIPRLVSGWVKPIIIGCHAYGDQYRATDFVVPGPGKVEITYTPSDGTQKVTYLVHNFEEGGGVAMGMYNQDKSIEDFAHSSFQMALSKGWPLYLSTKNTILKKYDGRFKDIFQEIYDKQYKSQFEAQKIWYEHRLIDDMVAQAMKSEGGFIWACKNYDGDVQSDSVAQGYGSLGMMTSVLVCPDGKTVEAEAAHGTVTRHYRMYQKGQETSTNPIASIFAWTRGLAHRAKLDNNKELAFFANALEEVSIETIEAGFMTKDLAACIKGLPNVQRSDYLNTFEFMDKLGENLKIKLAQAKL
Test: Inhibition of IDH1 R132C mutant (unknown origin) assessed as reduction in NADPH consumption using alpha-KG as substrate at 38 uM incubated for 5 mins by diaphorase/resazurin-coupled system relative to control

Structure (SMILES) | inhibition
CC1(C)CC(=O)c2cc(-c3nc(-c4ccc(Cl)cc4)cs3)c(=O)n(-c3ccccc3)c2C1 | 38%
CC1(C)CC(=O)c2cc(-c3nc(-c4ccc(Cl)cc4)cs3)c(=O)n(-c3ccccn3)c2C1 | 39%
CC(C)c1ccccc1-n1c2c(cc(-c3nc(-c4ccc(Cl)cc4)cs3)c1=O)C(=O)CC(C)(C)C2 | 61%
COc1ccc(OC)c(-n2c3c(cc(-n4cnc(-c5ccccc5)c4)c2=O)C(=O)CC(C)(C)C3)c1 | 44%
CN(C)c1ccccc1-n1c2c(cc(-c3nc(-c4ccc(Cl)cc4)cs3)c1=O)C(=O)CC(C)(C)C2 | 57%
Cc1ccccc1-n1c2c(cc(-c3nc(-c4ccc(Cl)cc4)cs3)c1=O)C(=O)CC(C)(C)C2 | 64%
CNc1ccccc1-n1c2c(cc(-c3nc(-c4ccc(Cl)cc4)cs3)c1=O)C(=O)CC(C)(C)C2 | 43%
CC1(C)CC(=O)c2cc(-c3nc(-c4ccc(Cl)cc4)cs3)c(=O)n(-c3ccccc3-c3ccccc3)c2C1 | 67%
COc1ccc(OC)c(-n2c3c(cc(-c4cc(-c5ccccc5)[nH]n4)c2=O)C(=O)CC(C)(C)C3)c1 | 41%
CC(C)n1c2c(cc(-c3nc(-c4ccc(Cl)cc4)cs3)c1=O)C(=O)CC(C)(C)C2 | 33%
CC1(C)CC(=O)c2cc(-c3nc(-c4ccc(Cl)cc4)cs3)c(=O)n(-c3ccccc3Cl)c2C1 | 70%
CC1(C)CC(=O)c2cc(-c3nc(-c4ccc(Cl)cc4)cs3)c(=O)n(-c3ccccc3OCc3ccccc3)c2C1 | 61%
CCc1cccc(CC)c1-n1c(C)c(C(=O)NC(C)(C)C)cc(-c2nc(-c3ccc(Cl)cc3)cs2)c1=O | 49%
CCc1cccc(CC)c1-n1c(C)c(C(=O)N2CCCCC2)cc(-c2nc(-c3ccc(Cl)cc3)cs2)c1=O | 65%
COc1ccc(OC)c(-n2c3c(cc(-n4ccc(-c5ccccc5)n4)c2=O)C(=O)CC(C)(C)C3)c1 | 41%

Next, values leading:

inhibition | Structure (SMILES)
69% | CCc1cccc(CC)c1-n1c(C)c(C(=O)Nc2ccccc2)cc(-c2nc(-c3ccc(Cl)cc3)cs2)c1=O
43% | COc1ccc(OC)c(-n2c3c(cc(-c4nc(-c5ccc(Cl)cc5)cs4)c2=O)C(=O)CCC3)c1
49% | CC1(C)CC(=O)c2cc(-c3nc(-c4ccc(Cl)cc4)cs3)c(=O)n(-c3ccccc3F)c2C1
35% | COc1cccc(-n2c3c(cc(-c4nc(-c5ccc(Cl)cc5)cs4)c2=O)C(=O)CC(C)(C)C3)c1OC
43% | COc1cc(C(=O)O)ccc1-n1c2c(cc(-c3nc(-c4ccc(Cl)cc4)cs3)c1=O)C(=O)CC(C)(C)C2
36% | COc1ccc(OC)c(-n2c(=O)c(-c3nc(-c4ccc(Cl)cc4)cs3)cc3c(O)cccc32)c1
53% | COc1ccccc1Cn1c2c(cc(-c3nc(-c4ccc(Cl)cc4)cs3)c1=O)C(=O)CC(C)(C)C2
46% | COc1ccc(OC)c(-n2c3c(cc(-c4cccc(-c5ccc(Cl)cc5)n4)c2=O)C(=O)CC(C)(C)C3)c1
42% | CC1(C)CC(=O)c2cc(-c3nc(-c4ccc(Cl)cc4)cs3)c(=O)n(-c3ccccc3N)c2C1
29% | COc1ccc(OC)c(-n2c3c(cc(-c4nc(-c5ccc(Cl)cc5)cs4)c2=O)C(=O)CC3)c1
65% | COc1c(C(=O)O)cccc1-n1c2c(cc(-c3nc(-c4ccc(Cl)cc4)cs3)c1=O)C(=O)CC(C)(C)C2
65% | COc1ccccc1-n1c2c(cc(-c3nc(-c4ccc(Cl)cc4)cs3)c1=O)C(=O)CC(C)(C)C2
64% | COc1ccc(OC)c(-n2c3c(cc(-c4nc(-c5ccc(Cl)cc5)cs4)c2=O)CCC(C)(C)C3)c1
61% | CC1(C)CC(=O)c2cc(-c3nc(-c4ccc(Cl)cc4)cs3)c(=O)n(-c3ccccc3O)c2C1
60% | CC1(C)CC(=O)c2cc(-c3nc(-c4ccc(Cl)cc4)cs3)c(=O)n(-c3ccccc3Oc3ccccc3)c2C1

System: Isocitrate dehydrogenase [NADP] cytoplasmic (Homo sapiens), O75874 [R132H]
Sequence (O75874 whole entry R132H): as the sequence (O75874 whole entry R132C) above, with C132H counted along it
Test: Inhibition of IDH1 R132H mutant (unknown origin) assessed as reduction in NADPH consumption using alpha-KG as substrate at 38 uM incubated for 5 mins by diaphorase/resazurin-coupled system relative to control

Structure (SMILES) | inhibition
CC1(C)CC(=O)c2cc(-c3nc(-c4ccc(Cl)cc4)cs3)c(=O)n(-c3ccccc3)c2C1 | 47%
CC1(C)CC(=O)c2cc(-c3nc(-c4ccc(Cl)cc4)cs3)c(=O)n(-c3ccccn3)c2C1 | 47%
CC(C)c1ccccc1-n1c2c(cc(-c3nc(-c4ccc(Cl)cc4)cs3)c1=O)C(=O)CC(C)(C)C2 | 62%
COc1ccc(OC)c(-n2c3c(cc(-n4cnc(-c5ccccc5)c4)c2=O)C(=O)CC(C)(C)C3)c1 | 59%
CN(C)c1ccccc1-n1c2c(cc(-c3nc(-c4ccc(Cl)cc4)cs3)c1=O)C(=O)CC(C)(C)C2 | 56%
Cc1ccccc1-n1c2c(cc(-c3nc(-c4ccc(Cl)cc4)cs3)c1=O)C(=O)CC(C)(C)C2 | 74%
CNc1ccccc1-n1c2c(cc(-c3nc(-c4ccc(Cl)cc4)cs3)c1=O)C(=O)CC(C)(C)C2 | 59%
CC1(C)CC(=O)c2cc(-c3nc(-c4ccc(Cl)cc4)cs3)c(=O)n(-c3ccccc3-c3ccccc3)c2C1 | 59%
COc1ccc(OC)c(-n2c3c(cc(-c4cc(-c5ccccc5)[nH]n4)c2=O)C(=O)CC(C)(C)C3)c1 | 47%
CC(C)n1c2c(cc(-c3nc(-c4ccc(Cl)cc4)cs3)c1=O)C(=O)CC(C)(C)C2 | 31%
CC1(C)CC(=O)c2cc(-c3nc(-c4ccc(Cl)cc4)cs3)c(=O)n(-c3ccccc3Cl)c2C1 | 83%
CC1(C)CC(=O)c2cc(-c3nc(-c4ccc(Cl)cc4)cs3)c(=O)n(-c3ccccc3OCc3ccccc3)c2C1 | 38%
CCc1cccc(CC)c1-n1c(C)c(C(=O)NC(C)(C)C)cc(-c2nc(-c3ccc(Cl)cc3)cs2)c1=O | 65%
CCc1cccc(CC)c1-n1c(C)c(C(=O)N2CCCCC2)cc(-c2nc(-c3ccc(Cl)cc3)cs2)c1=O | 51%
COc1ccc(OC)c(-n2c3c(cc(-n4ccc(-c5ccccc5)n4)c2=O)C(=O)CC(C)(C)C3)c1 | 71%

Next, values leading:

inhibition | Structure (SMILES)
40% | CCc1cccc(CC)c1-n1c(C)c(C(=O)Nc2ccccc2)cc(-c2nc(-c3ccc(Cl)cc3)cs2)c1=O
62% | COc1ccc(OC)c(-n2c3c(cc(-c4nc(-c5ccc(Cl)cc5)cs4)c2=O)C(=O)CCC3)c1
65% | CC1(C)CC(=O)c2cc(-c3nc(-c4ccc(Cl)cc4)cs3)c(=O)n(-c3ccccc3F)c2C1
64% | COc1cccc(-n2c3c(cc(-c4nc(-c5ccc(Cl)cc5)cs4)c2=O)C(=O)CC(C)(C)C3)c1OC
35% | COc1ccc(OC)c(-n2c(=O)c(-c3nc(-c4ccc(Cl)cc4)cs3)cc3c(O)cccc32)c1
61% | COc1ccccc1Cn1c2c(cc(-c3nc(-c4ccc(Cl)cc4)cs3)c1=O)C(=O)CC(C)(C)C2
67% | COc1ccc(OC)c(-n2c3c(cc(-c4cccc(-c5ccc(Cl)cc5)n4)c2=O)C(=O)CC(C)(C)C3)c1
57% | CC1(C)CC(=O)c2cc(-c3nc(-c4ccc(Cl)cc4)cs3)c(=O)n(-c3ccccc3N)c2C1
38% | COc1ccc(OC)c(-n2c3c(cc(-c4nc(-c5ccc(Cl)cc5)cs4)c2=O)C(=O)CC3)c1
82% | COc1c(C(=O)O)cccc1-n1c2c(cc(-c3nc(-c4ccc(Cl)cc4)cs3)c1=O)C(=O)CC(C)(C)C2
76% | COc1ccccc1-n1c2c(cc(-c3nc(-c4ccc(Cl)cc4)cs3)c1=O)C(=O)CC(C)(C)C2
87% | COc1ccc(OC)c(-n2c3c(cc(-c4nc(-c5ccc(Cl)cc5)cs4)c2=O)CCC(C)(C)C3)c1
71% | CC1(C)CC(=O)c2cc(-c3nc(-c4ccc(Cl)cc4)cs3)c(=O)n(-c3ccccc3O)c2C1
30% | CC1(C)CC(=O)c2cc(-c3nc(-c4ccc(Cl)cc4)cs3)c(=O)n(-c3ccccc3Oc3ccccc3)c2C1
